Here are results for 15 molecules from patent US20090209536A1, “AMINOQUINAZOLINE CANNABINOID RECEPTOR MODULATORS FOR TREATMENT OF DISEASE” (KALYPSYS, INC., priority 2007, published 2009).

By EC50 is commonly meant the concentration giving half of the maximal effect.

Test [1] deals with T1, human cannabinoid receptor type 2 (Homo sapiens, UniProt P34972).
T1 construct: expressed in transfected cells; membrane preparation
As to the kind of experiment: Human CB2 Radioligand Binding Assay. The settings on record: competition with [3H] CP-55,940; membranes from stably transfected CHO CB2 cells; read-out: CB2 Ligand Binding Asssay EC50. The gist of the method: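 Filtration competition binding on membranes from CHO cells stably expressing human CB2, with [3H]CP-55,940 at its lot-specific Kd, in 50 mM Tris-HCl pH 7.4, EGTA, MgCl2, 5 mg/ml BSA, 1% DMSO; 90 min at 30° C. Compounds at 10 uM single point or dose-response; bound radioactivity by scintillation, 100 nM CP-55,940 as 100% efficacy.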

Test [2] has as its target T2, human cannabinoid receptor type 1 (Homo sapiens, UniProt P21554).
T2 construct: purchased Perkin Elmer RBHCB1M; host or cells: HEK 293 EBNA cells
As to the kind of experiment: Human CB1 Radioligand Binding Assay (basis of selectivity, CB2 vs. CB1). As to conditions: CB1: HEK 293 EBNA cells expressing human CB1; CB2: CHO CB2 membranes. The method, then: 2. Human CB1 Radioligand Binding Assay
The incubation buffer was composed of 50 mM Tris-HCl pH 7.4, 2.5 mM EDTA, 5 mM MgCl2, 5.0 mg/ml fatty acid free BSA and the wash buffer was composed of 50 mM Tris-HCl pH 7.4, 2.5 mM EDTA, 5 mM MgCl2, 0.5 mg/ml fatty acid free BSA.

T1 sequence (P34972 whole entry): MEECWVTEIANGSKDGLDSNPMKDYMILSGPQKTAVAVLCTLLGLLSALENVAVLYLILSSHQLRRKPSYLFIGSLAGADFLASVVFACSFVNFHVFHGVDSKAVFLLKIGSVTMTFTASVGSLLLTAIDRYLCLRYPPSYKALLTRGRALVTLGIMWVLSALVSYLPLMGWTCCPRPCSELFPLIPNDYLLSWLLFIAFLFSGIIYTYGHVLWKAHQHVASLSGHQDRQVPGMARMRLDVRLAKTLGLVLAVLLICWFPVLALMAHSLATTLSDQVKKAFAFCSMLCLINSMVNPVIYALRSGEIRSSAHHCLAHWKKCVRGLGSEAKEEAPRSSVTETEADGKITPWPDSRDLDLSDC
T2 sequence (P21554 whole entry): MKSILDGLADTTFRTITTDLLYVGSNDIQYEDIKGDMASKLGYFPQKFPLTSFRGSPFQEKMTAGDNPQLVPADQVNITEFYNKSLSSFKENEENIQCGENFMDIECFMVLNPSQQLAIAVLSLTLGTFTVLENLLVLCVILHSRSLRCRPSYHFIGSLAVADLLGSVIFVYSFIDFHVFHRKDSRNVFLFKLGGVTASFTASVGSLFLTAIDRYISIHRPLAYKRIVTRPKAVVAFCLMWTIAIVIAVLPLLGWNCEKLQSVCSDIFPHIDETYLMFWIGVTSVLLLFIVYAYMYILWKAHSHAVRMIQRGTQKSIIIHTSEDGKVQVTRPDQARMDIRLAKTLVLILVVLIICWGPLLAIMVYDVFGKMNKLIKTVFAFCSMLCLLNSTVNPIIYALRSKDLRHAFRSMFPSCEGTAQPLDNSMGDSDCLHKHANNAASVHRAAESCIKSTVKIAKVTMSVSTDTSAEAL

For the molecule `Cc1ccccc1Nc1nc(-c2ccccc2Cl)nc2ccccc12` [Example 331, 2-(2-Chlorophenyl)-N-o-tolylquinazolin-4-amine], in test [1], the EC50 was > 1 µM. Moreover, the “Selectivity, CB2 vs. CB1” value in test [2] is recorded as “− (− indicates ≦ 10−fold)”.
The corresponding values for `CCOc1ccc(Nc2nc(-c3ccccc3Cl)nc3ccccc23)cc1` [Example 332, 2-(2-Chlorophenyl)-N-(4-ethoxyphenyl)quinazolin-4-amine] are > 1 µM and “− (− indicates ≦ 10−fold)”.
Regarding `CN1CCCN(c2nc(-c3ccccc3Cl)nc3ccccc23)CC1` [Example 333, 2-(2-Chlorophenyl)-4-(4-methyl-1,4-diazepan-1-yl)quinazoline], the half-maximal effective concentration (EC50) in test [1] was < 1 µM. Moreover, in test [2], the “Selectivity, CB2 vs. CB1” value is “− (− indicates ≦ 10−fold)”.
As to `CC(=O)N1CCCN(c2nc(-c3ccccc3Cl)nc3ccccc23)CC1` [Example 334, 1-(4-(2-(2-Chlorophenyl)quinazolin-4-yl)-1,4-diazepan-1-yl)ethanone], the EC50 in test [1] is < 1 µM. Moreover, in test [2], the “Selectivity, CB2 vs. CB1” value is given as “− (− indicates ≦ 10−fold)”.
On to `COc1ccc(Cc2nc(N3CCCCC3)c3ccccc3n2)cc1OC` [Example 335, 2-(3,4-Dimethoxybenzyl)-4-(piperidin-1-yl)quinazoline], for which the EC50 in test [1] was > 1 µM. Besides, the “Selectivity, CB2 vs. CB1” value in test [2] is reported as “− (− indicates ≦ 10−fold)”.
Regarding `COc1ccc(Cc2nc(N3CCCCC3)c3ccccc3n2)cc1` [Example 336, 2-(4-Methoxybenzyl)-4-(piperidin-1-yl)quinazoline], the EC50 in test [1] is > 1 µM. For the same molecule, in test [2], the “Selectivity, CB2 vs. CB1” value is “+ (+ indicates > 10−fold)”.
The corresponding values for `Cc1ccccc1Cc1nc(N2CCN(C)CC2)c2ccccc2n1` [Example 337, 2-(2-Methylbenzyl)-4-(4-methylpiperazin-1-yl)quinazoline] are < 1 µM and “− (− indicates ≦ 10−fold)”.
Regarding `CCOC(=O)N1CCN(c2nc(C(C)c3ccccc3C)nc3ccccc23)CC1` (stereo not drawn) [Example 338, Ethyl 4-(2-(1-o-tolylethyl)quinazolin-4-yl)piperazine-1-carboxylate], in test [1], the EC50 is > 1 µM. For the same molecule, in test [2], the “Selectivity, CB2 vs. CB1” value was “+ (+ indicates > 10−fold)”.
In the case of `c1ccc(Cc2nc(N3CCCCC3)c3ccccc3n2)cc1` [Example 339, 2-Benzyl-4-(piperidin-1-yl)quinazoline], the EC50 in test [1] was > 1 µM. Further, the “Selectivity, CB2 vs. CB1” value in test [2] is given as “− (− indicates ≦ 10−fold)”.
In the same order, the values of `CCOC(=O)N1CCN(c2nc(Cc3ccccc3C)nc3ccccc23)CC1` [Example 340, Ethyl 4-(2-(2-methylbenzyl)quinazolin-4-yl)piperazine-1-carboxylate] are > 1 µM and “+ (+ indicates > 10−fold)”.
Turning to `Cc1ccccc1Cc1nc(N2CCCC2)c2ccccc2n1` [Example 341, 2-(2-Methylbenzyl)-4-(pyrrolidin-1-yl)quinazoline], in test [1], the EC50 is < 1 µM. Moreover, in test [2], the “Selectivity, CB2 vs. CB1” value is on record as “− (− indicates ≦ 10−fold)”.
Take `Cc1ccccc1C(C)c1nc(N2CCCC2)c2ccccc2n1` (stereo not drawn) [Example 342, 4-(Pyrrolidin-1-yl)-2-(1-o-tolylethyl)quinazoline]: the concentration giving a half-maximal response (EC50) in test [1] was > 1 µM. Besides, the “Selectivity, CB2 vs. CB1” value in test [2] is “− (− indicates ≦ 10−fold)”.
In the same order, the values of `CCOC(=O)N1CCN(c2nc(-c3ccccc3Cl)nc3ccc([N+](=O)[O-])cc23)CC1` [Example 343, Ethyl 4-(2-(2-chlorophenyl)-6-nitroquinazolin-4-yl)piperazine-1-carboxylate] are > 1 µM and “− (− indicates ≦ 10−fold)”.
Turning to `CC(=O)N1CCN(c2nc(C(C)c3ccccc3C)nc3ccccc23)CC1` (stereo not drawn) [Example 344, 1-(4-(2-(1-o-Tolylethyl)quinazolin-4-yl)piperazin-1-yl)ethanone], in test [1], the EC50 was < 1 µM. Besides, the “Selectivity, CB2 vs. CB1” value in test [2] is reported as “+ (+ indicates > 10−fold)”.
For `CCOC(=O)N1CCN(c2nc(Cc3cccc4ccccc34)nc3ccccc23)CC1` [Example 345, Ethyl 4-(2-(naphthalen-1-ylmethyl)quinazolin-4-yl)piperazine-1-carboxylate], in test [1], the concentration for a half-maximal effect (EC50) was < 1 µM. Also, the “Selectivity, CB2 vs. CB1” value in test [2] is “+ (+ indicates > 10−fold)”.
